One assay concerns the target T1, LplA2 (S. pyogenes) (Streptococcus pyogenes, UniProt P0DN72).
T1 construct: gene lplA
Briefly: lipoylation of GcvH-L, anti-lipoyl immunoblot. It counts as biochemical. As to conditions: co-substrate SpyGcvH-L; 1 uM LplA, 2 uM target protein, 30 min, 30 C. (In general: A western blot detects proteins with antibodies after separation by electrophoresis.)

For the next assay, the target named is T2, EcoLplA (Escherichia coli, UniProt P32099).
T2 construct: gene lplA
T2 sequence (P32099 2-338): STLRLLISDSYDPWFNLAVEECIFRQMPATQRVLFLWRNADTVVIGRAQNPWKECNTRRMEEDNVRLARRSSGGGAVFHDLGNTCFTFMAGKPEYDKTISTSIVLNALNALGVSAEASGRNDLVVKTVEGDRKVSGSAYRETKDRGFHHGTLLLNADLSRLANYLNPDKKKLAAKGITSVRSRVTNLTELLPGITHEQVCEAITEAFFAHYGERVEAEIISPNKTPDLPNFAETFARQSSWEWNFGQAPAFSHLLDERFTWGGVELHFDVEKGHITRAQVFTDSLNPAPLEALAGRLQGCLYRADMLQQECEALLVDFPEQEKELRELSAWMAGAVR
Briefly: lipoylation of GcvH / GcvH-L, anti-lipoyl immunoblot. As to conditions: co-substrate EcoGcvH, SauGcvH or SauGcvH-L; 1 uM LplA, 2 uM target protein, 30 min, 30 C. It counts as biochemical.

In a further assay the target is T3, SauLplA1 (Staphylococcus aureus, UniProt A0A0H3JR16).
T3 construct: gene SAV1028
As to conditions: co-substrate SauGcvH or SauGcvH-L; 1 uM LplA, 2 uM target protein, 30 min, 30 C.

The target of another assay is T4, SauLplA2 (Staphylococcus aureus, UniProt A0A0H3JX98).
T4 construct: gene SAV0327
T4 sequence (A0A0H3JX98 1-340): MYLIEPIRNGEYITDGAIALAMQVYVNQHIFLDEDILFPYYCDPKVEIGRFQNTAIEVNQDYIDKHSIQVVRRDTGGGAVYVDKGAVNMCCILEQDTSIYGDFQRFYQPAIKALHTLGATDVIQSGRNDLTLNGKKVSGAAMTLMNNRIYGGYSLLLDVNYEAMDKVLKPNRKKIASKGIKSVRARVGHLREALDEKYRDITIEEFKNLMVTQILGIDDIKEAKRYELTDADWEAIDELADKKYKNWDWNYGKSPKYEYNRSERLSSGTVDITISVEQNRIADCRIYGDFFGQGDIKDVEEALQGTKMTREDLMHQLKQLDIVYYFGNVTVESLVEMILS
Kind of assay: lipoylation of GcvH-L, anti-lipoyl immunoblot. It counts as biochemical. As to conditions: co-substrate SauGcvH-L; 1 uM LplA, 2 uM target protein, 30 min, 30 C.

The target of the next assay is T5, SpySirTM (Streptococcus pyogenes, UniProt P0DN71).
T5 construct: gene SpyM50869; crystal model residues 3-292 (7-10 not visible)
Briefly: X-ray crystallography (crystal soak). Type of assay: binding. The note with it: 1 mM ligand soak, 10 min; 2.03 A; active site; also ADP-ribosyl donor for lipoylated GcvH-L.

T3 sequence (A0A0H3JR16 whole entry): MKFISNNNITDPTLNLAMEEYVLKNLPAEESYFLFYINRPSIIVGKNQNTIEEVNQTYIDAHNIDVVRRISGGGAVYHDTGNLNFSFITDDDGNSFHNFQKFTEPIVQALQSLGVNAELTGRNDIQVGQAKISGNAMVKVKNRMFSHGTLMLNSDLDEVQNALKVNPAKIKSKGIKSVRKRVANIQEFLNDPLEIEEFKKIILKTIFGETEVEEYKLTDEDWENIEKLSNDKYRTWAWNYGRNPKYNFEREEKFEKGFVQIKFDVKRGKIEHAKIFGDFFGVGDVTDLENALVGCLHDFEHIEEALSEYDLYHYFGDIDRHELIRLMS
T1 sequence (P0DN72 whole entry): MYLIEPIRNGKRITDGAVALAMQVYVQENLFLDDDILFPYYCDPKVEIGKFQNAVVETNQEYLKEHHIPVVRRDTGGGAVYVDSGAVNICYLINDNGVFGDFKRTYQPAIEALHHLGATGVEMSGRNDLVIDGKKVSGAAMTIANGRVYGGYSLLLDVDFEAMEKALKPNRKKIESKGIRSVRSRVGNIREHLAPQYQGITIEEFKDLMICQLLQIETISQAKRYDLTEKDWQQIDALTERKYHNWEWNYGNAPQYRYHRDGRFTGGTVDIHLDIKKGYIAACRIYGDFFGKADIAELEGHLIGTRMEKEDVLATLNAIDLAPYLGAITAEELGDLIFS
T5 sequence (P0DN71 whole entry, the tested form may be a part): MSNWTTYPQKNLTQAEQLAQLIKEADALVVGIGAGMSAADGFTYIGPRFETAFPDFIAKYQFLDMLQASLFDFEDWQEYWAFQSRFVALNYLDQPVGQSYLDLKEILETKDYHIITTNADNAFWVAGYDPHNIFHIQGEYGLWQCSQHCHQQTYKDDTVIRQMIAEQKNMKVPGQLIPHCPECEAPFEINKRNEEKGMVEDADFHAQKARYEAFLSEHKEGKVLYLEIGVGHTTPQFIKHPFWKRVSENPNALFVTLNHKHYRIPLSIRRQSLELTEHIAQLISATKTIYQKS

With `O=C(O)CCCC[C@@H]1CCSS1` (racemic) [lipoic acid], the “lipoylation of GcvH-L, anti-lipoyl immunoblot” value on LplA2 (S. pyogenes) and at SauLplA2 was “both operonal LplA2s efficiently transferred lipoic acid (LA) onto GcvH-L” each time. For the same compound, the “lipoylation of GcvH / GcvH-L, anti-lipoyl immunoblot” value at EcoLplA is on record as “EcoLplA readily modifies all three GcvHs”; on SauLplA1, “SauLplA1 appears to be indiscriminative toward both S. aureus GcvHs”.

Consider `NC(=O)c1ccc[n+]([C@@H]2O[C@H](COP(=O)(O)OP(=O)(O)OC[C@H]3O[C@@H](n4cnc5c(N)ncnc54)[C@H](O)[C@@H]3O)[C@@H](O)[C@H]2O)c1` [NAD^+], for which the “X-ray crystallography (crystal soak)” value at SpySirTM is on record as “The ligand-SpySirTM complexes reveal that the general mode of NAD^+ binding to SpySirTM is similar”.
